Experiments:
HEK293T cells = assay: eGFP plasmid DNA transfection; type: cell-based; settings: coacervates loaded with eGFP DNA plasmid 2.5 μg/mL; qualitative microscopy after 96 h
Experimental: findings were not OVA-specific.
Reserve University) 14,15.
Cytotoxicity and transfection assays
Untreated cells or ethanol treated cells served as controls. Cytotoxicity of all inhibitors was evaluated similarly. For transfection studies, […]
Biosystems, Catalog number: 4060; 2.5 μg/mL). Cells treated with the naked plasmid or […]
complexed with lipofectamine 2000 (3.2 µL) served as controls. GFP expression was assessed qualitatively after 96 h using a Lionheart FX automated microscope (BioTek Instruments, Inc.).
We employed TrueCut Cas9 protein for the knockout of CD55 gene using CRISPR technology, aided with chiral (GHGXY)4 peptide coacervates. The transfection of the Cas9 RNPs (protein + gRNA) was done according to manufacturer’s protocol (Invitrogen). Briefly, A549 cells were cultured in complete DMEM media (supplemented with 10% FBS and 5% Pen Strep) in T-75 flask till full confluency. Cells were then plated at a concentration of 2×10^4 cells/mL in 24 well […]
plates in DMEM media for 24 h. […]
confluent. For positive control, we mixed the TrueCutTM Cas9 protein/sgRNA in Opti-MEM media (17.8 μL) at a concentration of 12.50 μg (75 pmol; Stock 0.5 mg/mL) and 2.4 μg (75 pmol; Stock 1 nmol) for protein and sgRNA respectively, containing 50 μL LipofectamineTM Cas 9 PlusTM reagent (Total Volume: 100 μL) in a RNAse -free microcentrifuge tube. […]

DCs = assay: DQ-OVA delivery to lysosomes (fluorescence microscopy); type: cell-based, mouse; settings: DQ-OVA loaded coacervates, 2.5 μg/mL DQ-OVA, fluorescence microscopy
Experimental: page 13: Flow cytometry The transfected A549 cells were washed with FACS wash buffer (FWB; 1× PBS with 10% […] Cells were washed again with FWB and then resuspended in 100 µl of PBS with eBioscience™ Fixable Viability Dye eFluor™ 506 antibody. The staining was quenched with FWB following a 20 min incubation. The cells were centrifuged, washed 2× times with FWB, and resuspended in 100 µl FWB with CD55 (DAF) Antibody (anti-human; miltenyibiotec Cat#130-126-382). After 20 min, staining was quenched, cells washed twice and resuspended in 200 µl FWB for acquisition. Single-stained cells stained with eFluor™ 506, CD55 (DAF) Antibody, were used as compensation controls. Samples were acquired using an Agilent NovoCyte 3000 flow cytometer. Data were analyzed with FlowJo version 10. […] was quantified as the percentage CD55+ cells, considering untreated cells as the negative control and Lipofectamine treated ones as the positive control. Antigen delivery to lysosomes and inhibitor effects DC 2.4 cells were cultured in RPMI-1640 (Catalog number: 11875093) medium supplemented with 10% FBS, 100 U/mL penicillin, 100 μg/mL streptomycin, and 1 mM sodium pyruvate. Cells were plated in 8-well chamber slides (5000 cells in 200 μL of media) and incubated for 24 h prior to addition of DQ-OVA loaded coacervates for 2 h, 6 h, or 24 h (final DQ-OVA concentration was 2.5 μg/mL). Cells treated with PBS or soluble OVA served as controls. Cells were then washed and fixed using 4% Paraformaldehyde (PFA) for 15 min at RT and permeabilized with 0.1% Triton X-100 for 5 min prior to nuclear staining with Hoechst stain (Catalog number: 62249, Thermo Fischer Scientific; 10 μg/mL). Cells were imaged (60×) on Lionheart FX automated microscope (BioTek Instruments, Inc.) with controlled exposure S13 page 14: parameters across two channels: eGFP and DAPI.

[1] = Critical concentration (Ccrit) of coacervate formation; type: physicochemical; settings: 1× PBS, pH 7.4; enantiomeric variants identical
Excerpt: Peptide synthesis and purification
The L- and D-enantiomers of (GHGLY)4, (GHGVY)4 and (GHGPY)4 peptides were purchased from GenScript and used without further modification. (GHGAY)4, (GHGFY)4, (GHGIY)4 and (GHGNY)4 were synthesized using standard Fmoc-SPPS chemistry on Rink Amide with Oxyma (Ethyl cyano(hydroxyimino) acetate) and N, N′-diisopropylcarbodiimide (DIC) as coupling agents on a Liberty Blue microwave-assisted synthesizer. Peptides were cleaved using a cocktail of trifluoroacetic acid (TFA), tri-isopropyl silane (TIS), and H2O (95:2.5:2.5) and extracted and washed in cold diethyl ether. The resulting pellet was dissolved in acetonitrile/water mixture (50:50) and frozen prior to lyophilization. Peptides were purified (~90%) using High Performance Liquid Chromatography (HPLC) on a Dionex Ultimate 3000 HPLC equipped with a diode-array detector on an Agilent Poroshell RP-C18 column (4.6 mm×150 mm), operating at a flow rate of 1 mL/min. Peaks corresponding to 220 nm were collected for MALDI -TOF mass analysis (Shimadzu MALDI-8030) using α-cyno-4-hydroxycinnamic acid matrix (Bruker Daltonics, MA).
Peptide solutions (0.25–1.5 mM) were prepared in 1×PBS at pH 7.4. Aliquots (140 µL) were pipetted into a 96-well plate and absorbance at 600 nm was measured over 24 h using a Synergy HT plate reader (Biotek, USA) at RT or 37°C with or without agitation. The pH dependence of LLPS formation was assessed in 0.1 M potassium phosphate buffer (with 150 mM NaCl) at different pH values (5.8, 6.6, 7.4, 8.0) and 1 mM peptide concentration. Similarly, 0.1 M potassium phosphate buffer (pH 7.4) with varying salt concent rations (0, 150, 250, 500, 1000 mM […]
Figure S10. Determination of Ccrit for (a) (GHGLY)4, (b) (GHGVY)4, (c) (GHGPY)4 and (d-f) their corresponding enantiomers (1 mM, 1× PBS, pH 7.4).
Table S1. Measured Ccrit values for (GHGXY)4 peptides used in this study.
(1 picture or pasted object on this page, not shown here)

Row | critical concentration (Ccrit) of coacervate formation [1] | Substance | eGFP expression after plasmid delivery (HEK293T cells) | lysosomal processing of DQ-OVA delivered by coacervates (DCs)
1 | 0.5 mM | (GHGLY)4 [GL 20] | robust eGFP expression | Green fluorescent puncta were detected
2 | 0.75 mM | (GHGVY)4 [GV 20] | Poor eGFP expression | Green fluorescent puncta were detected
